Data: patent publication US20170334919A1, “2-((4-AMINO-3-(3-FLUORO-5-HYDROXYPHENYL)-1H-PYRAZOLO[3,4-D]PYRIMIDIN-1 -YL)METHYL)-3-(2-(TRIFLUORO-MET HYL)BENZYL)QUINAZOLIN-4(3H)-ONE DERIVATIVES AND THEIR USE AS PHOSPHOINOSITIDE 3-KINASE INHIBITORS” (RESPIVERT LTD., priority 2013, published 2017)
Read-outs that look alike come from different tables or passages of the source.

Legend:
PBMCs = assay: Cytostim-induced cytokine production in PBMCs; type: cell-based; conditions: Homo sapiens, PBMC
Experimental: As a means of assessing PI3Kδ-dependent cell function, cytostim-induced IL-4, IL-5, IL-13 and IFNγ production in PBMCs were evaluated by Luminex multiplex assay. All healthy volunteers were recruited by Quintiles Limited (London, UK), and blood samples were delivered to Respivert Ltd. This study was approved by the local Ethics Committee, and all subjects gave written informed consent.
PBMC suspensions (200 μL; 2×10^6 cells/mL) were added to a 96-well plate. Cells were treated with either test compounds in neat DMSO or DMSO as vehicle (2 μL) and incubated at RT for 1 hr. Cytostim (Miltentyi Biotec, Surrey, UK) was introduced at a ratio of 1:50 and the cells were incubated for 20 hr (37° C.; 5% CO2). Plates were spun at 500×g for 5 min and the supernatant collected. A high sensitivity cytokine magnetic bead kit (#HSCYTMAG-60SK, Millipore, Watford, UK) was used to measure the four analytes (IL-4, IL-5, IL-13 and IFNγ) by Luminex as follows: The magnetic antibody beads were multiplexed and incubated in a 96-well plate with standard, media only or sample (50 μL) overnight with shaking at 4° C. After washing twice with Millipore wash buffer provided in the kit using a magnetic plate washer, the beads were incubated for 1 hr with detection antibody (50 μL) with shaking at RT. A streptavidin-phycoerythrin solution provided in the kit was added for 30 min with shaking at RT. After washing, the beads were re-suspended in sheath fluid (150 μL) and analysed immediately. The Luminex system was set up to count 50 beads and the amount of each analyte in the supernatant was calculated against a standard curve. The IC50 values were determined from concentration-inhibition curves using XL-Fit (IDBS, Guildford, UK)

[1] = test system: LPS-induced airway neutrophilia in rats; assay: LPS-induced airway neutrophil accumulation in rats; type: in vivo
Experimental: Non-fasted rats were dosed with either vehicle or the test compound by intra-tracheal administration (dose volume 100 μL) at time points T=−2 h, −8 h, or −12 h with respect to the start of LPS treatment. The LPS solution (0.3 mg/mL) was aerosolised using a De Vibliss ultrasonic nebuliser 2000 (7 mL during 30 min). At eight hr after LPS challenge, the trachea was cannulated and bronchoalveolar lavage fluid (BALF) extracted by infusing and then withdrawing PBS (1 mL) into the lungs via the tracheal catheter. This procedure was repeated to provide approximately 2 mL of lavage fluid.
Total cell numbers in the BALF samples were measured using a Countess automated cell counter (Invitrogen). Cytospin smears of the BALF samples were prepared by centrifugation at 1200 rpm for 2 min at RT and stained using a DiffQuik stain system (Dade Behring) for differential cell counts. Cells were counted using oil immersion microscopy. Data are expressed as neutrophil number of cells per mL of BALF (mean±S.E.M).

IFNγ-primed U937 cells = assay: Superoxide anion production assay (zymosan-induced ROS); type: cell-based; conditions: Homo sapiens, U-937; read-out: REC50, Zymosan-induced ROS production in IFNγ-primed U937 cells
Experimental: As a means of assessing PI3Kδ dependent cell function, superoxide anion production in IFNγ-primed U937 cells was evaluated by a chemiluminescence assay. The U937 cells (purchased from ATCC, Manassas, Va.) were maintained in RPMI 1640 (Invitrogen Ltd., Paisley, UK) with 10% FCS at 37° C. The cells were suspended at a density of 10^7cells/mL in 40 mL 10% FCS RPMI 1640, and treated with 20 μL of 100 μg/mL IFNγ solution (final concentration: 50 ng/mL), and incubated at 37° C., 5% CO2 for 4 days.
IFNγ-primed U937 cells were seeded at 0.2×10^6 cells/well in a 96-well plate, and pre-incubated with test compounds for 2 hr in starvation media (0.5% FCS RPMI1640-phenol red free). Zymosan A (10 mg) from Saccharomyses cerevisiae (ex Sigma-Aldlich) was resuspended in 1 mL of 150 mM NaCl and boiled at 100° C. for 15 min. After boiling, Zymosan particles were washed with 1 mL of PBS twice, and incubated with 0.5 mL of BioParticles™ opsonized reagents (Life technologies) for 60 min at 37° C. […] Chemiluminescence indicating released superoxide anion was measured every 15 min up to 60 min by luminometric measurement (Varioskan® Flash, Thermo-Fisher Scientific).
The data at 60 min after incubation was used for analysis. […] The relative EC50 values were calculated from the concentration-response curves generated by the serial dilutions of the test compounds using XL-Fit (idbs, Guildford, UK).

[2] = 0.2 mg/mL intra-tracheal, pre-dose time 12 h

`COCCOCCOCC#Cc1cccc2nc(Cn3nc(-c4cc(O)cc(F)c4)c4c(N)ncnc43)n(Cc3ccccc3C(F)(F)F)c(=O)c12` [Compound (I), 2-((4-Amino-3-(3-fluoro-5-hydroxyphenyl)-1H-pyrazolo[3,4-d]pyrimidin-1-yl)methyl)-5-(3-(2-(2-methoxyethoxy)ethoxy)prop-1-yn-1-yl)-3-(2-(trifluoromethyl)benzyl)quinazolin-4(3H)-one] showed an IC50 (PBMCs; read-out: IC50, Cytostim-induced IFNγ in PBMCs) of 13.8 nM, an IC50 (PBMCs; read-out: IC50, Cytostim-induced IL-4 in PBMCs) of under 1.4 nM and an IC50 (PBMCs; read-out: IC50, Cytostim-induced IL-5 in PBMCs) of under 1.4 nM. The IC50 (PBMCs; read-out: IC50, Cytostim-induced IL-13 in PBMCs) was under 1.4 nM, the “Neutrophil numbers in BALF, % inhibition” value ([1]; 0.05 mg/mL intra-tracheal, pre-dose time 2 hr) was 2.3 (9) % and the “Neutrophil numbers in BALF, % inhibition” value ([1]; 0.2 mg/mL intra-tracheal, pre-dose time 2 hr) was 1.6 (58) %. The “Neutrophil numbers in BALF, % inhibition” value ([1]; 0.2 mg/mL intra-tracheal, pre-dose time 8 hr) was 33%, the “Neutrophil numbers in BALF (mean ± SEM)” value [1, 2] was 13.6 ± 2.7 ×10^5/mL and the “Neutrophil numbers in BALF, % inhibition” value [1, 2] was 10%. The Neutrophil numbers in BALF, % inhibition ([1]; 1.0 mg/mL intra-tracheal, pre-dose time 2 hr) was 73% and the EC50 (IFNγ-primed U937 cells) was 11.8 nM.
